Source: PubChem BioAssay AID256 (DTP/NCI, 2004)
Values joined by “and” are separate entries in the source; they are usually repeats but may differ in a detail not shown here. Equal values may be shown once. Inconclusive results and toxic doses are left out.

System: CD2F1 mice, L1210 leukemia ip, survival T/C
Test: NCI In Vivo Anticancer Drug Screen. Data for tumor model L1210 Leukemia (intraperitoneal) in CD2F1 (CDF1) mice
Conditions: higher = longer survival
Outline: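 Tumor-bearing mice (transplanted tumor) were split into treated and vehicle control groups, and the measured endpoint of each treated group was divided by that of its vehicle controls.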

[1] = endpoint: mean survival time, dose: 75.0 mg/kg/injection, schedule: Q01DX001 (ip), vehicle: other
[2] = endpoint: mean survival time, dose: 100.0 mg/kg/injection, schedule: Q04DX002 (ip), vehicle: saline with Tween-80
[3] = endpoint: mean survival time, dose: 200.0 mg/kg/injection, schedule: Q04DX002 (ip), vehicle: saline with Tween-80
[4] = endpoint: mean survival time, dose: 100.0 mg/kg/injection, schedule: Q01DX009 (ip), vehicle: saline with Tween-80
[5] = endpoint: mean survival time, dose: 100.0 mg/kg/injection, schedule: Q04DX003 (ip), vehicle: saline with Tween-80
[6] = endpoint: mean survival time, dose: 200.0 mg/kg/injection, schedule: Q01DX009 (ip), vehicle: saline with Tween-80
[7] = endpoint: mean survival time, dose: 200.0 mg/kg/injection, schedule: Q04DX003 (ip), vehicle: saline with Tween-80
[8] = endpoint: mean survival time, dose: 400.0 mg/kg/injection, schedule: Q01DX009 (ip), vehicle: saline with Tween-80
[9] = endpoint: mean survival time, dose: 400.0 mg/kg/injection, schedule: Q04DX003 (ip), vehicle: saline with Tween-80
[10] = endpoint: mean survival time, dose: 12.5 mg/kg/injection, schedule: Q01DX009 (ip), vehicle: saline with Tween-80
[11] = endpoint: mean survival time, dose: 25.0 mg/kg/injection, schedule: Q01DX009 (ip), vehicle: saline with Tween-80
[12] = endpoint: mean survival time, dose: 50.0 mg/kg/injection, schedule: Q01DX009 (ip), vehicle: saline with Tween-80
[13] = endpoint: mean survival time, dose: 50.0 mg/kg/injection, schedule: Q04DX002 (ip), vehicle: saline with Tween-80
[14] = endpoint: mean survival time, dose: 25.0 mg/kg/injection, schedule: Q04DX003 (ip), vehicle: saline with Tween-80

`CCN1CCC(CC)(CN2c3ccccc3Sc3ccc(Cl)cc32)C1` (configuration not stated) was tested, and the T/C (endpoint: mean survival time, dose: 100.0 mg/kg/injection, schedule: Q04DX003 (ip), vehicle: saline) was 100 % of control and the T/C (endpoint: mean survival time, dose: 200.0 mg/kg/injection, schedule: Q04DX003 (ip), vehicle: saline) was 96 % of control.
For `CN(C)CCP(c1ccccc1)c1ccccc1`, the T/C [1] was 102 % of control.
For `CC(C)(C)N[P+](C)(NC(C)(C)C)c1ccccc1`, the T/C (endpoint: mean survival time, dose: 3.13 mg/kg/injection, schedule: Q04DX003 (ip), vehicle: saline) was 98 % of control, the T/C (endpoint: mean survival time, dose: 6.25 mg/kg/injection, schedule: Q04DX003 (ip), vehicle: saline) was 103 % of control and the T/C (endpoint: mean survival time, dose: 12.5 mg/kg/injection, schedule: Q04DX003 (ip), vehicle: saline) was 86 % of control and 95 % of control.
`COc1ccccc1NC(=O)NCCN(C)c1ccccc1` was tested, and the T/C [2] was 88 % of control and the T/C [3] was 88 % of control.
`ClC(Cl)c1ccccc1C(Cl)(Cl)Cl` was tested, and the T/C (endpoint: mean survival time, dose: 100.0 mg/kg/injection, schedule: Q01DX001 (ip), vehicle: saline) was 104 % of control, the T/C [4] was 99 % of control and the T/C [5] was 94 % of control. For the same compound, the T/C (endpoint: mean survival time, dose: 200.0 mg/kg/injection, schedule: Q01DX001 (ip), vehicle: saline) was 98 % of control, the T/C [6] was 101 % of control and the T/C [7] was 94 % of control. The T/C (endpoint: mean survival time, dose: 400.0 mg/kg/injection, schedule: Q01DX001 (ip), vehicle: saline) was 98 % of control, the T/C [8] was 94 % of control and the T/C [9] was 88 % of control.
For `Cc1ccc(S(=O)(=O)NCl)cc1`, the T/C (endpoint: mean survival time, dose: 25.0 mg/kg/injection, schedule: Q01DX009 (ip), vehicle: saline) was 89 % of control and the T/C (endpoint: mean survival time, dose: 50.0 mg/kg/injection, schedule: Q01DX009 (ip), vehicle: saline) was 94 % of control.
With `CN(C)N=Nc1ccc(NC=O)cc1` the T/C (endpoint: mean survival time, dose: 4.68 mg/kg/injection, schedule: Q01DX009 (ip), vehicle: Klucel (hydroxypropylcellulose) (HPC)) was 104 % of control and the T/C (endpoint: mean survival time, dose: 9.37 mg/kg/injection, schedule: Q01DX009 (ip), vehicle: Klucel (hydroxypropylcellulose) (HPC)) was 115 % of control and 110 % of control.
In the case of `O=c1c2ccsc2ncn1C1OC(CO)C(O)C1O` (configuration not stated), the T/C [10] was 111 % of control, the T/C [11] was 111 % of control and the T/C [12] was 91 % of control.
`COc1cc[c-]cc1.[C-]#[O+].[C-]#[O+].[Fe+6].[c-]1[c-][c-][cH-][c-]1` was tested, and the T/C [13] was 102 % of control, the T/C [2] was 102 % of control and the T/C [3] was 97 % of control.
In the case of `O=c1[nH]cnc2n[nH]nc12`, the T/C (endpoint: mean survival time, dose: 12.5 mg/kg/injection, schedule: Q01DX009 (ip), vehicle: Klucel (hydroxypropylcellulose) (HPC)) was 116 % of control, the T/C (endpoint: mean survival time, dose: 25.0 mg/kg/injection, schedule: Q01DX009 (ip), vehicle: Klucel (hydroxypropylcellulose) (HPC)) was 119 % of control and the T/C [1] was 103 % of control. For the same compound, the T/C (endpoint: mean survival time, dose: 150.0 mg/kg/injection, schedule: Q01DX001 (ip), vehicle: other) was 108 % of control and the T/C (endpoint: mean survival time, dose: 300.0 mg/kg/injection, schedule: Q01DX001 (ip), vehicle: other) was 108 % of control.
With `CO/C(=N\C(=O)NC1CC(OC(=O)c2ccc(C)cc2)C(COC(=O)c2ccc(C)cc2)O1)NC(=O)c1ccc(C)cc1` (configuration not stated) the T/C [5] was 90 % of control.
`OCC(O)C(O)C(O)C(/C=N/Nc1ccccc1)=N\Nc1ccccc1` (configuration not stated) was tested, and the T/C (endpoint: mean survival time, dose: 75.0 mg/kg/injection, schedule: Q01DX001 (ip), vehicle: saline) was 95 % of control, the T/C (endpoint: mean survival time, dose: 150.0 mg/kg/injection, schedule: Q01DX001 (ip), vehicle: saline) was 100 % of control and the T/C (endpoint: mean survival time, dose: 300.0 mg/kg/injection, schedule: Q01DX001 (ip), vehicle: saline) was 97 % of control.
`O=C(Nc1cccc(Cl)c1)Nc1ccccc1Cl` was tested, and the T/C [14] was 93 % of control, the T/C (endpoint: mean survival time, dose: 50.0 mg/kg/injection, schedule: Q04DX003 (ip), vehicle: saline with Tween-80) was 96 % of control and the T/C [5] was 95 % of control. The T/C [7] was 89 % of control and the T/C [9] was 97 % of control.
With `COc1ccc(C[C@@H]2NC[C@@H](O)[C@@H]2OC(C)=O)cc1` the T/C [4] was 98 % of control, the T/C [5] was 105 % of control and the T/C [6] was 104 % of control. The T/C [7] was 103 % of control and the T/C [9] was 100 % of control.
For `CC([NH-])C([NH-])O.[Br][Pt+2][Br]` (configuration not stated), the T/C [14] was 169 % of control.
In the case of `Cc1ccc(S(=O)(=O)OCCOc2ccc(C(C)(C)CC(C)(C)C)cc2)cc1`, the T/C (endpoint: mean survival time, dose: 100.0 mg/kg/injection, schedule: Q01DX001 (ip), vehicle: Klucel (hydroxypropylcellulose) (HPC)) was 93 % of control, the T/C (endpoint: mean survival time, dose: 200.0 mg/kg/injection, schedule: Q01DX001 (ip), vehicle: Klucel (hydroxypropylcellulose) (HPC)) was 98 % of control and the T/C (endpoint: mean survival time, dose: 400.0 mg/kg/injection, schedule: Q01DX001 (ip), vehicle: Klucel (hydroxypropylcellulose) (HPC)) was 94 % of control.
In the case of `CCOC(=O)c1cc(OC(C)=O)c2c(ccc3ccccc32)c1C`, the T/C (endpoint: mean survival time, dose: 100.0 mg/kg/injection, schedule: Q04DX003 (ip), vehicle: Klucel (hydroxypropylcellulose) (HPC)) was 101 % of control, the T/C (endpoint: mean survival time, dose: 200.0 mg/kg/injection, schedule: Q04DX003 (ip), vehicle: Klucel (hydroxypropylcellulose) (HPC)) was 104 % of control and the T/C (endpoint: mean survival time, dose: 400.0 mg/kg/injection, schedule: Q04DX003 (ip), vehicle: Klucel (hydroxypropylcellulose) (HPC)) was 97 % of control.
For `CCOC(=O)C(Br)(Br)C(=O)OCC`, the T/C (endpoint: mean survival time, dose: 6.25 mg/kg/injection, schedule: Q01DX009 (ip), vehicle: saline with Tween-80) was 99 % of control, the T/C [10] was 99 % of control and the T/C [11] was 99 % of control.
For `Cc1cc(C)c(C)c(Br)c1`, the T/C (endpoint: mean survival time, dose: 100.0 mg/kg/injection, schedule: Q01DX009 (ip), vehicle: saline sonified) was 95 % of control, the T/C [5] was 100 % of control and the T/C [9] was 102 % of control.
With `Cc1ccc(S(=O)(=O)N(Cc2ccc(Cl)cc2)N2CCOC2=O)cc1` the T/C (endpoint: mean survival time, dose: 50.0 mg/kg/injection, schedule: Q01DX009 (ip), vehicle: Klucel (hydroxypropylcellulose) (HPC)) was 92 % of control, the T/C (endpoint: mean survival time, dose: 100.0 mg/kg/injection, schedule: Q01DX009 (ip), vehicle: Klucel (hydroxypropylcellulose) (HPC)) was 93 % of control and the T/C (endpoint: mean survival time, dose: 200.0 mg/kg/injection, schedule: Q01DX009 (ip), vehicle: Klucel (hydroxypropylcellulose) (HPC)) was 98 % of control.
In the case of `CCC(=O)c1ccccc1N`, the T/C [5] was 90 % of control, the T/C [7] was 105 % of control and the T/C [9] was 97 % of control.
`CC(C)(C)[Si](OC(=O)N(CCCl)N=O)(c1ccccc1)c1ccccc1` was tested, and the T/C (endpoint: mean survival time, dose: 6.25 mg/kg/injection, schedule: Q01DX001 (ip), vehicle: distilled water + Tween-80) was 98 % of control, the T/C (endpoint: mean survival time, dose: 12.5 mg/kg/injection, schedule: Q01DX001 (ip), vehicle: distilled water + Tween-80) was 88 % of control and the T/C (endpoint: mean survival time, dose: 25.0 mg/kg/injection, schedule: Q01DX001 (ip), vehicle: distilled water + Tween-80) was 93 % of control. For the same compound, the T/C (endpoint: mean survival time, dose: 50.0 mg/kg/injection, schedule: Q01DX001 (ip), vehicle: distilled water + Tween-80) was 88 % of control and the T/C (endpoint: mean survival time, dose: 100.0 mg/kg/injection, schedule: Q01DX001 (ip), vehicle: distilled water + Tween-80) was 90 % of control.
For `COc1ccc2cc(OC)c(OC)cc2n1`, the T/C (endpoint: mean survival time, dose: 100.0 mg/kg/injection, schedule: Q01DX001 (ip), vehicle: saline with Tween-80) was 96 % of control, the T/C (endpoint: mean survival time, dose: 200.0 mg/kg/injection, schedule: Q01DX001 (ip), vehicle: saline with Tween-80) was 96 % of control and the T/C (endpoint: mean survival time, dose: 400.0 mg/kg/injection, schedule: Q01DX001 (ip), vehicle: saline with Tween-80) was 98 % of control.
With `CC1(C)COC(=O)C(C)(C)C1=O` the T/C (endpoint: mean survival time, dose: 25.0 mg/kg/injection, schedule: Q04DX002 (ip), vehicle: saline with Tween-80) was 107 % of control, the T/C [13] was 96 % of control and the T/C [2] was 96 % of control.
In the case of `CC(=O)c1cc(C)c[n+](C2OC(COC(=O)c3ccccc3)C(OC(=O)c3ccccc3)C2O)c1` (configuration not stated), the T/C (endpoint: mean survival time, dose: 3.13 mg/kg/injection, schedule: Q01DX005 (ip), vehicle: water) was 100 % of control, the T/C (endpoint: mean survival time, dose: 6.25 mg/kg/injection, schedule: Q01DX005 (ip), vehicle: water) was 98 % of control and the T/C (endpoint: mean survival time, dose: 12.5 mg/kg/injection, schedule: Q01DX005 (ip), vehicle: water) was 106 % of control. For the same compound, the T/C (endpoint: mean survival time, dose: 25.0 mg/kg/injection, schedule: Q01DX005 (ip), vehicle: water) was 93 % of control, the T/C (endpoint: mean survival time, dose: 50.0 mg/kg/injection, schedule: Q01DX005 (ip), vehicle: water) was 100 % of control and 101 % of control and the T/C (endpoint: mean survival time, dose: 100.0 mg/kg/injection, schedule: Q01DX005 (ip), vehicle: water) was 93 % of control.
In the case of `CC(=O)Nc1ccc(S(=O)(=O)CO)cc1`, the T/C [10] was 97 % of control, the T/C [11] was 92 % of control and 97 % of control and the T/C [12] was 102 % of control and 108 % of control. The T/C [4] was 101 % of control and 108 % of control, the T/C [6] was 101 % of control and 103 % of control and the T/C [8] was 101 % of control and 109 % of control.
`C=C1C(=O)OC2/C=C(\C)CC(O)/C=C(/CO)CC(OC(=O)/C(C)=C/C)C12` (configuration not stated) was tested, and the T/C (endpoint: median survival time, dose: 15.0 mg/kg/injection, schedule: Q01DX009 (ip), vehicle: saline) was 103 % of control, the T/C (endpoint: median survival time, dose: 30.0 mg/kg/injection, schedule: Q01DX009 (ip), vehicle: saline) was 108 % of control and the T/C (endpoint: median survival time, dose: 60.0 mg/kg/injection, schedule: Q01DX009 (ip), vehicle: saline) was 105 % of control. For the same compound, the T/C (endpoint: median survival time, dose: 120.0 mg/kg/injection, schedule: Q01DX009 (ip), vehicle: saline) was 95 % of control.
